The text below walks through data of patent publication US20260176319A1, “PEPTIDE ANALOGS AND METHODS OF USING THE SAME” (Kallyope, Inc., priority 2024, published 2026).

pEC50: −log10 of the molar value. Read-outs that look alike come from different tables or passages of the source. Starred links: 1 amine or outer side, 2 acyl side, 3 side chain; linkers in the order of their positions; H or OH if unused. Non-standard residues stand in square brackets, D forms with d. Residues, ends and D or L forms follow the SMILES beside them. *: point of attachment. Me3N+(CH2)2O(CH2)2O(CH2)2CO = C[N+](C)(C)CCOCCOCCC(=O)*; Trp(7-Me) = Cc1cccc2c(C[C@H](N)C(=O)O)c[nH]c12; C20 diacid = O=C(O)CCCCCCCCCCCCCCCCCCC(=O)*; d(γGlu) = O=C(O)[C@@H](CCC(=O)[*:2])N[*:1]; C18 diacid = O=C(O)CCCCCCCCCCCCCCCCC(=O)*; γGlu = O=C(O)[C@H](CCC(=O)[*:2])N[*:1]; NMeH = CN[C@@H](Cc1c[nH]cn1)C(=O)O; X1 = O=C(CC1(N[*:1])CCC1)[*:2]; X2 = O=C(CC1(N[*:1])CC1)[*:2]; Nle = CCCC[C@H](N)C(=O)O; β3hA = C[C@H](N)CC(=O)O; Dap = NC[C@H](N)C(=O)O; AEEA = NCCOCCOCC(=O)O; βAla = NCCC(=O)O A value given as a limit tells only on which side of the number the result lay.

Data set [1] can be described thus: Pharmacokinetics after intravenous peptide administration in mice. Also on record: species or system C57BL/6 mice. To be noted: in vivo. How it is done: GPR-10 and peptides were dosed IV at 2 mg/kg as a formulation of 0.4 mg/mL in […]+65% water (pH 6-7).
Another data set deals with T1, human GRP receptors (Homo sapiens, UniProt P30550).
T1 construct: host or cells: U2OS
Put plainly: IP1 GRPR activity: HTRF IP1-Gq assay in U2OS cells stably expressing human GRP receptors. The data set is classed as cell-based. The following applies: 90 minutes incubation, read-out: hIP1 GRPR EC50. As to the method: U2OS cells stably expressing human GRP receptors (DiscoverX, #93-0229C3) were cultured according to manufacturer's instructions. Cells were cultured to […], then collected using AccuTase (Innovative Cell Technologies, #AT104). Cells were washed and plated on a poly-D-lysine-coated 384-well plate (ThermoFisher, #A3890401) at a density of 2,500 cells/well in […] assay buffer (AssayComplete Cell Plating 5 Reagent, DiscoverX #93-0563R5), then incubated overnight at 37° C. and 5% C02. The following morning, a homogenous time-resolved fluorescence (HTRF) assay was performed in a 384-well plate format using the IP1-Gq assay kit (Cisbio, 62IPAPEB). Test compounds were made as a stock in DMSO, then serially diluted to generate 10-point dose response curves in IP1 stimulation buffer. Five microliters of the prepared compounds were then added to the plate containing cells and assay buffer in duplicate, and the cells were incubated at 37° C. and 5% CO2 for 90 minutes. Following compound incubation, […] of IP1 lysis/detection buffer (prepared according to manufacturer's instructions) was added to each well, and the plates were incubated at room temperature for 1 hour. HTRF signals were measured using a plate reader (ClarioSTAR), calculating the ratio between emissions at 665 nm and 620 nm (HTRF ratio). HTRF ratio for positive (Max, […]; SEQ ID NO. 45) and negative (Min, DMSO) controls were used to normalize HTRF data and generate values for % activity. EC50 and Max activity values were determined using a standard 4-parameter fit using GraphPad Prism.

The mark [2] stands for this setting: mouse, C57BL/6 mice, IV 2 mg/kg, formulation of 0.4 mg/mL, read-out: T1/2 (converted).
Where [3] appears, read: mouse, C57BL/6 mice, IV 2 mg/kg, formulation of 0.4 mg/mL, read-out: CL.

T1 sequence (P30550 whole entry): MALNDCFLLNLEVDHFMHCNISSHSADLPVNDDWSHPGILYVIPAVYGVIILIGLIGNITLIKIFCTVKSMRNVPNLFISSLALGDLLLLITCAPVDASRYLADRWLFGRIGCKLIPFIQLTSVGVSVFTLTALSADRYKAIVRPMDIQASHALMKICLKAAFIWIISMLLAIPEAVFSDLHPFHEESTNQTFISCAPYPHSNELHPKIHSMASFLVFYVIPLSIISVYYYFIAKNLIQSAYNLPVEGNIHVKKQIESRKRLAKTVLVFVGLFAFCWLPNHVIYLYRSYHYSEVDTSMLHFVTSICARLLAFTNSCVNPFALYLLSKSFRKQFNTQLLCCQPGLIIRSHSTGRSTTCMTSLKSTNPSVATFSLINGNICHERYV

In the case of `CSCC[C@H](NC(=O)[C@H](CC(C)C)NC(=O)[C@H](Cc1cnc[nH]1)NC(=O)CNC(=O)[C@@H](NC(=O)[C@H](C)NC(=O)[C@H](Cc1c[nH]c2ccccc12)NC(=O)[C@H](Cc1cnc[nH]1)NC(=O)[C@H](CC(N)=O)NC(=O)CN)C(C)C)C(N)=O` [GRP10, G-N-H-W-A-V-G-H-L-M-NH2, reference compound], in data set [1] (C57BL/6, mouse, iv, 2 mg/kg), the clearance was determined as 4540 mL/min/kg and the half-life is 0.3 h.
As for `CCCC[C@H](NC(=O)[C@H](CC(C)C)NC(=O)[C@H](Cc1c[nH]cn1)NC(=O)[C@@H](C)NC(=O)[C@@H](NC(=O)[C@H](C)NC(=O)[C@H](Cc1c[nH]c2ccccc12)NC(=O)[C@H](Cc1c[nH]cn1)NC(=O)[C@H](CC(N)=O)NC(=O)CN)C(C)C)C(N)=O` [Peptide 6, Gly-Asn-His-Trp-Ala-Val-D-Ala-His-Leu-Nle-NH2], in data set [1] (setting [2]), the half-life was less than 0.1 h.
With `CCCCCCCCCCCCCCCC(=O)N[C@H](CCC(=O)NCCOCCOCC(=O)NCCOCCOCC(=O)NCC(=O)N[C@@H](CC(N)=O)C(=O)N[C@@H](Cc1c[nH]cn1)C(=O)N[C@@H](Cc1c[nH]c2ccccc12)C(=O)N[C@@H](C)C(=O)N[C@H](C(=O)NCC(=O)N[C@@H](Cc1c[nH]cn1)C(=O)N[C@@H](CC(C)C)C(=O)N[C@@H](CCSC)C(N)=O)C(C)C)C(=O)O` [Peptide 8, Palmitoyl-D-γGlu-OEG-OEG-Gly-Asn-His-Trp-Ala-Val-Gly-His-Leu-Met-NH2], the clearance in data set [1] (setting [3]) worked out at 1.2 mL/min/kg. For the same compound, the half-life in data set [1] (setting [2]) is 2 h.
The matching figures for `CCCC[C@H](NC(=O)[C@H](CC(C)C)NC(=O)[C@H](Cc1c[nH]cn1)NC(=O)[C@@H](C)NC(=O)[C@@H](NC(=O)[C@H](C)NC(=O)[C@H](Cc1c[nH]c2ccccc12)NC(=O)[C@H](Cc1c[nH]cn1)NC(=O)[C@H](CC(N)=O)NC(=O)CNC(=O)COCCOCCNC(=O)COCCOCCNC(=O)CC[C@@H](NC(=O)CCCCCCCCCCCCCCCCC(=O)O)C(=O)O)C(C)C)C(N)=O` [Peptide 9, Octadecanedioyl-D-γGlu-OEG-OEG-Gly-Asn-His-Trp-Ala-Val-D-Ala-His-Leu-Nle-NH2] ({C18 diacid-d(γGlu)-AEEA-AEEA}-GNHWAV[dA]HL[Nle]-NH2): 0.5 mL/min/kg and 5.7 h.
For the compound `CCCC[C@H](NC(=O)[C@H](CC(C)C)NC(=O)[C@H](Cc1c[nH]cn1)NC(=O)CCNC(=O)[C@@H](NC(=O)[C@H](C)NC(=O)[C@H](Cc1c[nH]c2c(C)cccc12)NC(=O)[C@H](Cc1c[nH]cn1)NC(=O)[C@H](CCCNC(=N)N)NC(=O)CNC(=O)[C@H](CCC(=O)O)NC(=O)COCCOCCNC(=O)COCCOCCNC(=O)CC[C@H](NC(=O)CC[C@H](NC(=O)CCCCCCCCCCCCCCCCCCC(=O)O)C(=O)O)C(=O)O)C(C)C)C(N)=O` [Peptide 252, Eicosanedioyl-γGlu-γGlu-OEG-OEG-Glu-Gly-Arg-His-7MeTrp-Ala-Val-β-Ala-His-Leu-Nle-NH2] ({C20 diacid-γGlu-γGlu-AEEA-AEEA}-EGRH[Trp(7-Me)]AV[βAla]HL[Nle]-NH2), on human GRP receptors, the pEC50 was 8.12. Further, the clearance in data set [1] (setting [3]) is 0.12 mL/min/kg. In addition, the half-life in data set [1] (setting [2]) was 6.6 h.
As for `CCCC[C@H](NC(=O)[C@H](CC(C)C)NC(=O)[C@H](Cc1c[nH]cn1)NC(=O)CCNC(=O)[C@@H](NC(=O)[C@H](C)NC(=O)[C@H](Cc1c[nH]c2c(C)cccc12)NC(=O)[C@H](Cc1c[nH]cn1)NC(=O)[C@H](CCC(=O)O)NC(=O)CNC(=O)[C@H](CO)NC(=O)COCCOCCNC(=O)COCCOCCNC(=O)CC[C@H](NC(=O)CC[C@H](NC(=O)CCCCCCCCCCCCCCCCCCC(=O)O)C(=O)O)C(=O)O)C(C)C)C(N)=O` [Peptide 255, Eicosanedioyl-γGlu-Glu-OEG-OEG-Ser-Gly-Glu-His-7MeTrp-Ala-Val-β-Ala-His-Leu-Nle-NH2] ({C20 diacid-γGlu-γGlu-AEEA-AEEA}-SGEH[Trp(7-Me)]AV[βAla]HL[Nle]-NH2), on human GRP receptors, the pEC50 was 8.16. Moreover, in data set [1] (setting [3]), the clearance amounted to 0.09 mL/min/kg. Further, in data set [1] (setting [2]), the half-life is 9.4 h.
Take `CCCC[C@H](NC(=O)[C@H](CC(C)C)NC(=O)[C@H](Cc1c[nH]cn1)NC(=O)CCNC(=O)[C@@H](NC(=O)[C@H](C)NC(=O)[C@H](Cc1c[nH]c2c(C)cccc12)NC(=O)[C@H](Cc1c[nH]cn1)NC(=O)[C@H](CCC(N)=O)NC(=O)[C@H](CO)NC(=O)[C@H](CCC(=O)O)NC(=O)COCCOCCNC(=O)COCCOCCNC(=O)CC[C@H](NC(=O)CC[C@H](NC(=O)CCCCCCCCCCCCCCCCCCC(=O)O)C(=O)O)C(=O)O)C(C)C)C(N)=O` [Peptide 257, Eicosanedioyl-γGlu-γGlu-OEG-OEG-Glu-Ser-Gln-His-7MeTrp-Ala-Val-β-Ala-His-Leu-Nle-NH2] ({C20 diacid-γGlu-γGlu-AEEA-AEEA}-ESQH[Trp(7-Me)]AV[βAla]HL[Nle]-NH2): the clearance in data set [1] (setting [3]) is 0.09 mL/min/kg. Also, the half-life in data set [1] (setting [2]) was 9.4 h.
Turning to `CCCC[C@H](NC(=O)[C@H](CC(C)C)NC(=O)[C@H](Cc1c[nH]cn1)NC(=O)C[C@H](C)NC(=O)[C@@H](NC(=O)[C@H](C)NC(=O)[C@H](Cc1c[nH]c2c(C)cccc12)NC(=O)[C@H](Cc1c[nH]cn1)NC(=O)[C@H](CC(N)=O)NC(=O)CNC(=O)COCCOCCNC(=O)COCCOCCNC(=O)CC[C@H](NC(=O)CC[C@H](NC(=O)CCCCCCCCCCCCCCCCCCC(=O)O)C(=O)O)C(=O)O)C(C)C)C(N)=O` [Peptide 258, Eicosanedioyl-γGlu-γGlu-OEG-OEG-Gly-Asn-His-7MeTrp-Ala-Val-BABA-His-Leu-Nle-NH2] ({C20 diacid-γGlu-γGlu-AEEA-AEEA}-GNH[Trp(7-Me)]AV[β3hA]HL[Nle]-NH2), the pEC50 at human GRP receptors was 8.22.
Same read-out and setting: to `CCCC[C@H](NC(=O)[C@H](CC(C)C)NC(=O)[C@H](Cc1c[nH]cn1)NC(=O)CCNC(=O)[C@@H](NC(=O)[C@H](C)NC(=O)[C@H](Cc1c[nH]c2ccccc12)NC(=O)[C@H](Cc1c[nH]cn1)NC(=O)[C@H](CNC(=O)CCOCCOCC[N+](C)(C)C)NC(=O)CNC(=O)COCCOCCNC(=O)COCCOCCNC(=O)CC[C@H](NC(=O)CCCCCCCCCCCCCCCCCCC(=O)O)C(=O)O)C(C)C)C(N)=O` [Peptide 262, Eicosanedioyl-γGlu-OEG-OEG-Gly-Dap(2CE-PEG-TMEA)-His-Trp-Ala-Val-β-Ala-His-Leu-Nle-NH2] ({C20 diacid-γGlu-AEEA-AEEA}-G[Dap](Me3N+(CH2)2O(CH2)2O(CH2)2CO)HWAV[βAla]HL[Nle]-NH2) belongs 8.40; to `CCCC[C@H](NC(=O)[C@H](CC(C)C)NC(=O)[C@H](Cc1cnc[nH]1)N(C)C(=O)C[C@H](C)NC(=O)[C@@H](NC(=O)[C@H](C)NC(=O)[C@H](Cc1c[nH]c2c(C)cccc12)NC(=O)[C@H](Cc1c[nH]cn1)NC(=O)[C@H](CCC(N)=O)NC(=O)CNC(=O)COCCOCCNC(=O)COCCOCCNC(=O)CC[C@H](NC(=O)CC[C@H](NC(=O)CCCCCCCCCCCCCCCCCCC(=O)O)C(=O)O)C(=O)O)C(C)C)C(N)=O` [Peptide 270, Eicosanedioyl-γGlu-γGlu-OEG-OEG-Gly-Gln-His-7MeTrp-Ala-Val-BABA-NMeHis-Leu-Nle-NH2] ({C20 diacid-γGlu-γGlu-AEEA-AEEA}-GQH[Trp(7-Me)]AV[β3hA][NMeH]L[Nle]-NH2), 8.42; to `CCCC[C@H](NC(=O)[C@H](CC(C)C)NC(=O)[C@H](Cc1c[nH]cn1)NC(=O)CC1(NC(=O)[C@@H](NC(=O)[C@H](C)NC(=O)[C@H](Cc2c[nH]c3ccccc23)NC(=O)[C@H](Cc2c[nH]cn2)NC(=O)[C@H](CCC(N)=O)NC(=O)CNC(=O)COCCOCCNC(=O)COCCOCCNC(=O)CC[C@H](NC(=O)CC[C@H](NC(=O)CCCCCCCCCCCCCCCCCCC(=O)O)C(=O)O)C(=O)O)C(C)C)CC1)C(N)=O` [Peptide 272, Eicosanedioyl-γGlu-γGlu-OEG-OEG-Gly-Gln-His-Trp-Ala-Val-ACPA-His-Leu-Nle-NH2] ({C20 diacid-γGlu-γGlu-AEEA-AEEA}-GQHWAV[X2]HL[Nle]-NH2), 8.22.
Still for that read-out and setting: to `CCCC[C@H](NC(=O)[C@H](CC(C)C)NC(=O)[C@H](Cc1c[nH]cn1)NC(=O)CC1(NC(=O)[C@@H](NC(=O)[C@H](C)NC(=O)[C@H](Cc2c[nH]c3ccccc23)NC(=O)[C@H](Cc2c[nH]cn2)NC(=O)[C@H](CCC(N)=O)NC(=O)CNC(=O)COCCOCCNC(=O)COCCOCCNC(=O)CC[C@H](NC(=O)CC[C@H](NC(=O)CCCCCCCCCCCCCCCCCCC(=O)O)C(=O)O)C(=O)O)C(C)C)CCC1)C(N)=O` [Peptide 273, Eicosanedioyl-γGlu-Glu-OEG-OEG-Gly-Gln-His-Trp-Ala-Val-ACBA-His-Leu-Nle-NH2] ({C20 diacid-γGlu-γGlu-AEEA-AEEA}-GQHWAV[X1]HL[Nle]-NH2) belongs 7.91.

In general, pEC50 refers to −log10 of the EC50, conventionally taken in molar units.
